From patent US20230285570A1, “THERAPEUTICALLY USEFUL CURE-PRO MOLECULES FOR E3 LIGASE MEDIATED DEGRADATION OF PROTEINS, AND METHODS OF MAKING AND USING THEM” (CORNELL UNIVERSITY, priority 2020, published 2023)
Entries after “also recorded” stand apart in the source; their conditions may differ.

Test system: SLC19A1
Assay: RT-PCR of c-MYC downstream target gene SLC19A1 in HeLa cells
Assay type: cell-based, Human
Conditions: 10 μM each, 24 h
Procedure: The suppression of the expression of the downstream c-MYC target, SLC19A1, was measured by RT-PCR using Power SYBR® Green Cells-to-Ct™ Kit (Life Technologies). Adherent cells were plated on 96 well plates at 5,000 cells per well were treated for 24 h with monomer compounds and compounds capable of reversible interactions (1 nM-100 μM). Cells were subsequently washed in ice-cold PBS processed according to the manufacturer's instructions. Quantitative real-time PCR was performed using a ViiA™ 7 Real-time PCR System (Applied Biosystems, Foster City, Calif., USA). GAPDH and ACTB served as internal controls.
HeLa cells (1×10^4) were treated for 24 hours in 96 well plates with the compounds solubilized in DMSO. Compounds were added at 10 μM each and RNA expression measured by the Cells-to Ct method described above (Thermofisher).

CCNC(=O)C[C@@H]1N=C(c2ccc(Cl)cc2)c2cc(OCCOCCNC(=O)c3cccc(O)c3O)ccc2-n2c(C)nnc21 [BRD-N39, N-(2-(2-(((4S)-6-(4-chlorophenyl)-4-(2-(ethylamino)-2-oxoethyl)-1-methyl-4H-benzo[f][1,2,4]triazolo[4,3-a][1,4]diazepin-8-yl)oxy)ethoxy)ethyl)-2,3-dihydroxybenzamide]
suppression of SLC19A1 expression (combined with MDM2 ligand 8310, HeLa): suppression to levels comparable to that of JQ1 treatment
suppression of SLC19A1 expression (combined with MDM2 ligand 8312, HeLa): Complete suppression; also recorded: completely suppressed
